≈ marks a conversion by molar mass, not a printed value.
Tests used:
HIV-1(Ba-L) = assay: HIV-1(BaL) p24 antigen production in human primary macrophages (M/M); format: cell-based; settings: Table 2; for EC50: Human immunodeficiency virus 1, BAL, Primary macrophage
Source text: Viruses. The origins of MSV, HIV type 1 (HIV-1) (strain IIIB and Ba-L), HIV-2 (strain ROD) and FIV (strain Petaluma) have been described previously (Balzarini et al., AIDS 5: 21-28, 1991; De Clercq et al., Proc. Soc. Exp. Biol. Med. 137:590-594, 1971; Egberink et al., Proc. Natl. Acad. Sci. 87:3087-3091, 1990; Hartmann et al., Antiviral Chem. Chemother. 5:13-19, 1994; Popovic et al., Science 224:497-500, 1984). HIV-1(IIIB) and HIV-2(ROD) stocks were obtained from supernatants of virus-infected MT-4 cell cultures. HIV-1BaL was expanded in human primary M/M, whose supernatants were collected, filtered and stored at −80° C. before use. Characteristics of viral stocks used for this study were 2.1×10^8 HIV-RNA genomes/ml (corresponding to 35 ng of p24 antigen) and 5,000 tissue culture infectious doses 50% per ml (TCID50/ml) as assessed by virus titration in other primary M/M cultures. The isolation and characterization of the clinical HIV-1 isolates L1S, L6S and L6S/PMEA has been reported (Thormar et al., Proc. Natl. Acad. Sci. USA 93:3283-3287, 1995; Van Laethem et al., AIDS 15:553-561, 2001). The HIV-1/L1S clinical isolate was derived from a patient not treated with NRTIs (nucleoside reverse transcriptase inhibitors) or ANPs and cultured without the selective pressure of any drugs. Therefore, it contained no obvious mutations that are characteristic for NRTI- or ANP-treated patients. HIV-1/L6S is a clinical isolate from a drug-treated individual cultured without the selective pressure of any drugs. As is characteristic for NRTI-treated patients, it contained S68G, K70T, V75I, F77L, F116Y and Q151M mutations in its RT. HIV-1/L6S/PMEA is the clinical isolate HIV-1/L6S that has been isolated after culturing the virus for 11 passages in the presence of increasing concentrations of PMEA (adefovir). It gained, in addition to the mutations mentioned for HIV-1/L6S, also the PMEA-characteristic K65R mutation in its reverse transcriptase (RT).
Human primary macrophages (M/M) were prepared and purified as follows. Peripheral blood mononuclear cells (PBMC), obtained from healthy HIV-1-negative donors were separated over a Ficoll gradient and seeded in 48-well plates at 1.8×10^6 cells/well in 1 ml of RPMI 1640 containing 20% heat-inactivated, endotoxin- and mycoplasma-free fetal bovine serum (Hyclone Laboratories, Inc., Logan, Utah), 4 mM L-glutamine (Life Technologies), 50 U/ml penicillin and 50 μg/ml streptomycin (Life Technologies) (hereinafter referred to as complete medium). Five days after plating and culturing the PBMC at 37° C. in a humidified atmosphere enriched with 5% CO2-adherent cells were carefully removed with repeated washings with warmed RPMI-1640, leaving a monolayer of adherent cells which were finally incubated in complete medium. […]

[1] = MT-4 cell toxicity (trypan blue exclusion); format: cell-based; settings: human, reduction of cell viability, Table 2
Method: (§1) Cytostatic and antimetabolic effect of acyclic nucleoside phosphonates in vitro. The assays to examine the inhibition of CEM cell growth by the test compounds have been described previously (Balzarini et al., AIDS 5:21-28, 1991). The 50% cytostatic concentration (CC50) was defined as the concentration of compound that reduced the number of living cells by 50% . To measure MT-4 cell toxicity of the test compounds, 5×10^4 MT-4 cells were incubated in the wells of 96-well microplates in the presence or absence of different concentrations of the test compounds for 5 days at 37° C. The CC50 was then calculated from the number of living cells counted under a microscope by the trypan blue exclusion method.

Cell viability in PBL = format: cell-based; settings: human, reduction of cell viability, Table 2
[2] = Cell viability in monocyte/macrophages (M/M); format: cell-based, human; settings: human
HSV-1 (KOS) = assay: Antiviral activity, HSV-1 (KOS), Table 1a; format: cell-based
HSV-2 (G) = assay: Antiviral activity, HSV-2 (G), Table 1a; format: cell-based
HSV-1 TK- VMW 1837 = assay: Antiviral activity, HSV-1 TK- VMW 1837, Table 1a; format: cell-based
CMV AD-169 = assay: Antiviral activity, CMV AD-169, Table 1a; format: cell-based
CMV Davis = assay: Antiviral activity, CMV Davis, Table 1a; format: cell-based
VZV TK + OKA = assay: Antiviral activity, VZV TK+ OKA, Table 1a; format: cell-based
VZV TK + YS = assay: Antiviral activity, VZV TK+ YS, Table 1a; format: cell-based
VZV TK − 07/1 = assay: Antiviral activity, VZV TK- 07/1, Table 1a; format: cell-based
VZV TK − YS/R = assay: Antiviral activity, VZV TK- YS/R, Table 1a; format: cell-based
MSV = assay: Antiviral activity, MSV, Table 1a; format: cell-based
HIV-2 = assay: Antiviral activity, HIV-2, Table 1a; format: cell-based
CEM cells = assay: Inhibition of CEM cell growth (cytostatic activity); format: cell-based
How it was run: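 MT-4 cells (5×10^4/well) exposed to compound dilutions for 5 days at 37 °C; CC50 = concentration cutting living cells by 50%, counted microscopically with trypan blue exclusion. CEM cytostatic CC50 defined likewise, by a previously described method.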

MT-4 cells = assay: MT-4 cell toxicity (trypan blue exclusion); format: cell-based; settings: reduction of cell viability; Table 2
Method: as §1

PBL = assay: Cell viability in PBL; format: cell-based; settings: reduction of cell viability; Table 2
[3] = tested on: monocyte/macrophages (M/M); assay: Cell viability in monocyte/macrophages (M/M); format: cell-based, human; settings: reduction of cell viability; Table 2
CrFK cells = assay: Toxicity in CrFK cells; format: cell-based, feline; settings: Table 2
[4] = 50% cytostatic concentration, CEM cell proliferation, Table 1
[5] = inhibition of cell proliferation, Table 2

SMILES | EC50 (HIV-1(Ba-L)) [µg/mL] | EC50 HIV-1 (BaL) (M/M) (HIV-1(Ba-L)) [µg/mL] | CC50 (CEM) (CEM cells; [4]) [µg/mL] | CC50 (CEM) (CEM cells; [5]) [µg/mL] | CC50 MT-4 (MT-4 cells) | CC50 PBL (PBL) [µg/mL] | CC50 M/M [3] [µg/mL] | CC50 CrFK (CrFK cells) [µg/mL] | CC50 at 5 days ([1]; MT-4 cells) [µg/mL] | also measured
Nc1ncnc2c1ncn2CCOCP(=O)(O)O [PMEA, 9-[(2-phosphono-methoxy)ethyl]adenine, reference compound] | 0.006 (≈ 0.022 µM) |  |  |  |  |  |  |  |  | CC50 at 5 days [1]: 28 ± 12 µg/mL (≈ 102 µM); CC50 (Cell viability in PBL): 1.7 ± 0.4 µg/mL (≈ 6.22 µM); CC50 ([2]; reduction of cell viability, Table 2, read-out: CC50 M/M): > 100 µg/mL
C[C@H](COc1cc(N)nc(N)n1)OCP(=O)(O)O [Compound 11, 2,4-diamino-6-(R)-[2-(phosphonomethoxy)propoxy]pyrimidine] |  | 0.005 ± 0.0 (≈ 0.018 µM) | 62 (≈ 223 µM) | 62 ± 25 (≈ 223 µM) | ≧100 μg/ml | 9.6 ± 2.5 (≈ 34.5 µM) | >100 | >100 |  | Antiviral Activity EC50 HSV-1 (KOS) (HSV-1 (KOS)): 16 µg/mL; Antiviral Activity EC50 HSV-2 (G) (HSV-2 (G)): 48 µg/mL; Antiviral Activity EC50 HSV-1 TK- VMW 1837 (HSV-1 TK- VMW 1837): 9.6 µg/mL; Antiviral Activity EC50 CMV AD-169 (CMV AD-169): >50 µg/mL; Antiviral Activity EC50 CMV Davis (CMV Davis): >50 µg/mL; Antiviral Activity EC50 VZV TK + OKA (VZV TK + OKA): 3.8 µg/mL; Antiviral Activity EC50 VZV TK + YS (VZV TK + YS): 5.9 µg/mL; Antiviral Activity EC50 VZV TK − 07/1 (VZV TK − 07/1): 6.3 µg/mL; Antiviral Activity EC50 VZV TK − YS/R (VZV TK − YS/R): 5.7 µg/mL; Antiviral Activity EC50 MSV (MSV): 0.05 µg/mL; Antiviral Activity EC50 HIV-2 (HIV-2): 1.3 µg/mL; CC50 for CEM cells (CEM cells): around 60 μg/mL; Antiviral Activity EC50 HIV-1 (HIV-1): 1.9 µg/mL
Nc1cc(OCCOCP(=O)(O)O)nc(N)n1 [Compound 1, 2,4-diamino-6-[2-(phosphonomethoxy)ethoxy]pyrimidine] | 0.002 ± 0.001 (≈ 0.00757 µM) |  |  |  |  |  |  |  | 46 ± 7.4 (≈ 174 µM) | CC50 (Cell viability in PBL; PHA-stimulated peripheral blood mononuclear cells (PBL)): 2.2 ± 0.8 µg/mL (≈ 8.33 µM); CC50 [2]: > 100 µg/mL
C[C@H](Cn1cnc2c(N)ncnc21)OCP(=O)(O)O [(R)-PMPA, (R)-9-[(2-phosphonomethoxy)-propyl]adenine, reference compound] |  | 0.003 ± 0.001 (≈ 0.0104 µM) | 125 (≈ 435 µM) | 125 ± 26 (≈ 435 µM) | 72 ± 12 µg/mL (≈ 251 µM) | >100 | >100 | >100 |  | 
Nc1cc(SCCOCP(=O)(O)O)nc(N)n1 [Compound 2, 2,4-diamino-6-{[2-(phosphonomethoxy)ethyl]-sulfanyl}pyrimidine] |  |  |  |  |  |  |  |  | ≥ 100 | 
